Assay results published in patent US9085541B2, “Process for producing imine compounds for combating invertebrate pests” (priority 2010, dated 2015).

Test system: tobacco budworm (Heliothis virescens)
Test: Tobacco budworm (Heliothis virescens) I: 96-well microtiter plates with insect diet and eggs, egg and larval mortality
Assay type: in vivo
Conditions: 120 h, read-out: mortality (egg and larval mortality, visually assessed)
Method: B.1 Tobacco Budworm (Heliothis virescens) I
For evaluating control of tobacco budworm (Heliothis virescens) the test unit consisted of 96-well-microtiter plates containing an insect diet and 15-25 H. virescens eggs. The compounds were formulated using a solution containing 75% v/v water and 25% v/v DMSO. Different concentrations of formulated compounds were sprayed onto the insect diet at 10 μl, using a custom built micro atomizer, at two replications. After application, microtiter plates are incubated at about 28±1° C. and about 80±5% relative humidity for 5 days. Egg and larval mortality is then visually assessed.

Cc1cc(C2=NOC(c3cc(Cl)cc(Cl)c3)(C(F)(F)F)C2)ccc1C=NNC(=O)NCC(F)(F)F (centres unmarked) [Compound 1-1, 4-[5-(3,5-dichloro-phenyl)-5-trifluoromethyl-4,5-dihydro-isoxazol-3-yl]-2-methyl-benzaldehyde-4-trifluoroethylsemicarbazone]
mortality at 2500 ppm: ≥ 75%

CC(=NNC(=O)NCC(F)(F)F)c1ccc(C2=NOC(c3cc(Cl)cc(Cl)c3)(C(F)(F)F)C2)cc1C (centres unmarked) [Compound 1-19, 1-{4-[5-(3,5-dichloro-phenyl)-5-trifluoromethyl-4,5-dihydro-isoxazol-3-yl]-2-methyl-phenyl}-ethanone-4-trifluoroethylsemicarbazone]
mortality at 2500 ppm: ≥ 75%
